In EP1433789A1, “Pyrrolopyrazines and their use as selective apoptosis inducers” (Aponetics AG, priority 2002, dated 2004):

Columns and labels:
[1] = test system: A20; experiment: Hoechst 33342 nuclear staining (Table 3); type: cell-based, mouse; design: key: 0 relating to no activity; 1 relating to weak activity comprising less than 50% of the cells; score 2 relating to strong activity comprising more than 50% of the cells
How it was run: (§1)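 Adherent cells (3-5×10^3, pre-spread 24 h) or suspension cells (8-10×10^3) treated with compounds at 10, 3, 1 and 0.3 µM for 24 or 48 h, then Hoechst 33342 stained for 30 min. Apoptotic nuclear morphology scored by fluorescence microscopy: 0 none, 1 weak (<50% cells), 2 strong (>50% cells).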

[2] = test system: Jurkat; experiment: Hoechst 33342 nuclear staining (Table 3); type: cell-based, human; design: key: 0 relating to no activity; 1 relating to weak activity comprising less than 50% of the cells; score 2 relating to strong activity comprising more than 50% of the cells
How it was run: as §1

[3] = test system: KB; experiment: Hoechst 33342 nuclear staining (Table 3); type: cell-based, human; design: key: 0 relating to no activity; 1 relating to weak activity comprising less than 50% of the cells; score 2 relating to strong activity comprising more than 50% of the cells
How it was run: as §1

[4] = test system: HeLa; experiment: MTS proliferation assay; type: cell-based; settings: Homo sapiens, 72 h incubation
How it was run: (§2)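 Cells (1.5*10^3–10^4/well) seeded 24 h before treatment, then exposed 72 h to compound at 10, 3, 1 or 0.3 µM final (≤5% DMSO in added medium). Viability by MTS reagent, 3 h further incubation, absorbance at 492 nm.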

[5] = test system: Jurkat; experiment: MTS proliferation assay; type: cell-based; settings: Homo sapiens, 72 h incubation
How it was run: as §2

[6] = test system: K562; experiment: MTS proliferation assay; type: cell-based; settings: Homo sapiens, K562, 72 h incubation
How it was run: as §2

[7] = test system: HeLa; experiment: AnnexinV/7-AAD staining; type: cell-based, human; settings: 10 µM, 24 h treatment
How it was run: (§3)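 Cells treated with compound at 10 µM final for 24 h, then stained with AnnexinV-GST/anti-GST Alexa 488 and 7-AAD and analysed by flow cytometry. Percent positive cells scored as 0 (<10%), 1 (10–50%) or 2 (>50%).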

[8] = test system: Jurkat; experiment: AnnexinV/7-AAD staining; type: cell-based, human; settings: 10 µM, 24 h treatment
How it was run: as §3

[9] = test system: Ramos; experiment: AnnexinV/7-AAD staining; type: cell-based, human; settings: 10 µM, 24 h treatment
How it was run: as §3

[10] = test system: A20; experiment: AnnexinV/7-AAD staining; type: cell-based, mouse; settings: A20, 10 µM, 24 h treatment
How it was run: as §3

[11] = test system: HeLa; experiment: BrdU incorporation (proliferation); type: cell-based, human; design: key: 0 for no activity; 1 for a moderate inhibition; 2 for strong inhibition of proliferation; settings: 48 h
Experimental: (§4) Adherent cells are seeded out at 2 - 4*10^4 cells/well/ml in 24 well tissue culture plates 24 h prior to treatment. Suspension cells are seeded out at 2*10^5 cells/ml/well in 24 well plates. Compounds are added leading to final concentrations of 3 µM and 10 µM, respectively. Subsequently, BrdU (Molecular Probes #B-23151) at 10 µM final concentration is added and the plates are incubated for 48 h. After the incubation cells are processed according to standard procedures. The detection of the incorporated BrdU is done with the anti-bromodeoxyuridine Mab PRB-1, Alexa Fluor 660 conjugate (Molecular Probes #A-21306). The analysis is performed on a FACSCalibur™ by monitoring the fluorescence activity on FL3. The readout reflects DNA synthesis which is a hallmark for proliferation. The scores are defined the following: 0 for no activity, 1 for a moderate inhibition and 2 for strong inhibition of proliferation. Table 7 indicates inhibitory activities of several tested compounds on proliferation.

[12] = test system: Jurkat; experiment: BrdU incorporation (proliferation); type: cell-based, human; design: key: 0 for no activity; 1 for a moderate inhibition; 2 for strong inhibition of proliferation; settings: 48 h
Experimental: as §4

| SMILES | Hoechst 33342 nuclear staining ([1]; A20, 24h, conc 0.3 (µM)) | Hoechst 33342 nuclear staining ([1]; A20, 24h, conc 1 (µM)) | Hoechst 33342 nuclear staining ([1]; A20, 24h, conc 3 (µM)) | Hoechst 33342 nuclear staining ([1]; A20, 24h, conc 10 (µM)) | Hoechst 33342 nuclear staining ([1]; A20, 48h, conc 0.3 (µM)) | Hoechst 33342 nuclear staining ([1]; A20, 48h, conc 1 (µM)) | Hoechst 33342 nuclear staining ([1]; A20, 48h, conc 3 (µM)) | Hoechst 33342 nuclear staining ([1]; A20, 48h, conc 10 (µM)) | Hoechst 33342 nuclear staining ([2]; 24h, conc 0.3 (µM)) | Hoechst 33342 nuclear staining ([2]; 24h, conc 1 (µM)) | Hoechst 33342 nuclear staining ([2]; 24h, conc 3 (µM)) | Hoechst 33342 nuclear staining ([2]; 24h, conc 10 (µM)) | Hoechst 33342 nuclear staining ([2]; 48h, conc 0.3 (µM)) | Hoechst 33342 nuclear staining ([2]; 48h, conc 1 (µM)) | Hoechst 33342 nuclear staining ([2]; 48h, conc 3 (µM)) | Hoechst 33342 nuclear staining ([2]; 48h, conc 10 (µM)) | Hoechst 33342 nuclear staining ([3]; 24h, conc 0.3 (µM)) | Hoechst 33342 nuclear staining ([3]; 24h, conc 1 (µM)) | Hoechst 33342 nuclear staining ([3]; 24h, conc 3 (µM)) | Hoechst 33342 nuclear staining ([3]; 24h, conc 10 (µM)) | other results |
| --- | --- | --- | --- | --- | --- | --- | --- | --- | --- | --- | --- | --- | --- | --- | --- | --- | --- | --- | --- | --- | --- |
| COc1cc2c(cc1OC)-c1c(Cl)c3nc4ccccc4nc3n1C(C)C2 (stereo not drawn) [compound 12] | 0 | 0 | 0 | 0 | 0 | 0 | 0 | 2 (score 2 relating to strong activity comprising more than 50% of the cells) | 0 | 0 | 1 (1 relating to weak activity comprising less than 50% of the cells) | 2 (score 2 relating to strong activity comprising more than 50% of the cells) | 1 (1 relating to weak activity comprising less than 50% of the cells) | 2 (score 2 relating to strong activity comprising more than 50% of the cells) | 2 (score 2 relating to strong activity comprising more than 50% of the cells) | 2 (score 2 relating to strong activity comprising more than 50% of the cells) | 0 | 0 | 0 | 2 (score 2 relating to strong activity comprising more than 50% of the cells) | Hoechst 33342 nuclear staining ([3]; 48h, conc 0.3 (µM)): 0; Hoechst 33342 nuclear staining ([3]; 48h, conc 1 (µM)): 0; Hoechst 33342 nuclear staining ([3]; 48h, conc 3 (µM)): 2 (score 2 relating to strong activity comprising more than 50% of the cells); Hoechst 33342 nuclear staining ([3]; 48h, conc 10 (µM)): 2 (score 2 relating to strong activity comprising more than 50% of the cells); IC50 [4]: > 10 µM; IC50 [5]: > 10 µM; IC50 [6]: > 10 µM; percentage of positively stained cells (AnnexinV/7-AAD staining) [7]: 2 (score 2 relates to more than 50% positivity); percentage of positively stained cells (AnnexinV/7-AAD staining) [8]: 2 (score 2 relates to more than 50% positivity); percentage of positively stained cells (AnnexinV/7-AAD staining) [9]: 2 (score 2 relates to more than 50% positivity); percentage of positively stained cells (AnnexinV/7-AAD staining) [10]: 2 (score 2 relates to more than 50% positivity); BrdU incorporation (inhibition of proliferation) ([11]; 3uM): 1; BrdU incorporation (inhibition of proliferation) ([11]; 10uM): 1; BrdU incorporation (inhibition of proliferation) ([12]; 3uM): 2; BrdU incorporation (inhibition of proliferation) ([12]; 10uM): 2 |
| CCC1Cc2cc(OC)c(OC)cc2-c2cc3nc4ccccc4nc3n21 (stereo not drawn) [compound 13] | 0 | 0 | 0 | 0 | 0 | 0 | 0 | 0 | 0 | 0 | 1 (1 relating to weak activity comprising less than 50% of the cells) | 2 (score 2 relating to strong activity comprising more than 50% of the cells) | 0 | 2 (score 2 relating to strong activity comprising more than 50% of the cells) | 2 (score 2 relating to strong activity comprising more than 50% of the cells) | 2 (score 2 relating to strong activity comprising more than 50% of the cells) | 0 | 0 | 0 | 2 (score 2 relating to strong activity comprising more than 50% of the cells) | Hoechst 33342 nuclear staining ([3]; 48h, conc 0.3 (µM)): 0; Hoechst 33342 nuclear staining ([3]; 48h, conc 1 (µM)): 0; Hoechst 33342 nuclear staining ([3]; 48h, conc 3 (µM)): 2 (score 2 relating to strong activity comprising more than 50% of the cells); Hoechst 33342 nuclear staining ([3]; 48h, conc 10 (µM)): 2 (score 2 relating to strong activity comprising more than 50% of the cells); IC50 [4]: > 10 µM; IC50 [5]: 1 to 10 µM; IC50 [6]: > 10 µM; percentage of positively stained cells (AnnexinV/7-AAD staining) [7]: 1 (score 1 relates to more than 10% but less than 50%); percentage of positively stained cells (AnnexinV/7-AAD staining) [8]: 2 (score 2 relates to more than 50% positivity); percentage of positively stained cells (AnnexinV/7-AAD staining) [9]: 2 (score 2 relates to more than 50% positivity); percentage of positively stained cells (AnnexinV/7-AAD staining) [10]: 2 (score 2 relates to more than 50% positivity); BrdU incorporation (inhibition of proliferation) ([11]; 3uM): 1; BrdU incorporation (inhibition of proliferation) ([12]; 3uM): 2; BrdU incorporation (inhibition of proliferation) ([12]; 10uM): 2 |
